Reference: patent publication US12624034B2, “Non-covalent modifiers of AKT1 and uses thereof” (Terremoto Biosciences, Inc., priority 2023, dated 2026)
Read-outs that look alike come from different tables or passages of the source.

Key:
AKT1 WT = molecular target: T1, AKT1 WT (Homo sapiens, UniProt P31749); test: Live cell AKT1 WT target engagement by NanoBRET competitive probe displacement in HEK293 cells; assay type: binding; details: 2 h at 37° C.
T1 construct: expressed in transfected cells; host or cells: HEK293
T1 sequence (P31749 whole entry): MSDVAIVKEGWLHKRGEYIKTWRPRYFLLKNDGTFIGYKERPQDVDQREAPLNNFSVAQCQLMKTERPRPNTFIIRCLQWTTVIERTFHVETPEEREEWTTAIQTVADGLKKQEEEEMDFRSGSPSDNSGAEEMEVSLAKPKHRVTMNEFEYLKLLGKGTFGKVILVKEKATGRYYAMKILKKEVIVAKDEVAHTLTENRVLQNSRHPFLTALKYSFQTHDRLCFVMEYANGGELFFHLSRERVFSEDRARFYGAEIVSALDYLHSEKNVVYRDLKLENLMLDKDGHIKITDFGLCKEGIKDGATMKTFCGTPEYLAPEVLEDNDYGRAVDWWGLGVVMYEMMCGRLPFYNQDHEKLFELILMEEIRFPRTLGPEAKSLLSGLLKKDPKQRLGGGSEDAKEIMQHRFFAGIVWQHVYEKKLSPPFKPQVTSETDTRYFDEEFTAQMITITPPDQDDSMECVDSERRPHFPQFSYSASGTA

AKT2 = molecular target: T2, AKT2 (Homo sapiens, UniProt P31751); test: Live cell AKT2 target engagement by NanoBRET competitive probe displacement in HEK293 cells; assay type: binding; details: 2 h at 37° C.
T2 construct: expressed in transfected cells; host or cells: HEK293
T2 sequence (P31751 whole entry): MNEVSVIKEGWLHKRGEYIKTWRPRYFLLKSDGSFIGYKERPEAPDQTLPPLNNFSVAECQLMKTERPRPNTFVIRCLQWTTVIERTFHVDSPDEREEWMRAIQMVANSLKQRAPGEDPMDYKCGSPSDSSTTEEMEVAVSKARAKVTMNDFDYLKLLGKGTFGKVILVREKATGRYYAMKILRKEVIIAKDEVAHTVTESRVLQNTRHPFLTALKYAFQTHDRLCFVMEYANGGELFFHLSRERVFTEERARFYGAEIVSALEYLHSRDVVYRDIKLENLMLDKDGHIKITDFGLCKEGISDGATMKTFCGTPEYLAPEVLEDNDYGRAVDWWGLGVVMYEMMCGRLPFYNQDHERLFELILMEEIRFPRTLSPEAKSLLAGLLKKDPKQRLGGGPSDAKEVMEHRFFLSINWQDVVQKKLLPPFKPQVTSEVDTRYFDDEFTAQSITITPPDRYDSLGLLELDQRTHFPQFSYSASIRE

[1] = NanoBRET competitive probe displacement, live HEK293 cells, read-out: AKT1 WT IC50
[2] = NanoBRET competitive probe displacement, live HEK293 cells, read-out: AKT2 IC50
[3] = NanoBRET live cell target engagement, HEK293 cells, read-out: AKT1 WT IC50
[4] = NanoBRET live cell target engagement, HEK293 cells, read-out: AKT2 IC50

Row | IC50 (AKT1 WT; [1]) [nM] | IC50 (AKT2; [2]) [nM] | IC50 (AKT1 WT; [3]) [nM] | IC50 (AKT2; [4]) [nM] | Structure (SMILES) | other results
1 | 19.6 | 561 | – | – | Cc1ccc(C(=O)N[C@H]2CCc3cc(-n4c(-c5cccnc5N)nc5ccc(-n6cnc(C)n6)nc54)ccc32)cn1 [Compound 417, (S)—N-(5-(2-(2-aminopyridin-3-yl)-5-(3-methyl-1H-1,2,4-triazol-1-yl)-3H-imidazo[4,5-b]pyridin-3-yl)-2,3-dihydro-1H-inden-1-yl)-6-methylnicotinamide] | –
2 | – | – | 20.4 | 363 | Cn1nc(C(=O)N[C@H]2CCc3cc(-n4c(-c5cccnc5N)nc5ccc(-n6cccn6)nc54)ccc32)c2cccnc21 [Compound 163] | –
3 | 17.8 | 1090 | – | – | Cc1cnc2ccc(C(=O)N[C@H]3CCc4cc(-n5c(-c6cccnc6N)nc6ccc(-n7nccn7)nc65)ccc43)cn12 [Compound 398] | –
4 | – | – | > 1000 | 2550 | CN(C(=O)N[C@H]1CCc2cc(-n3c(-c4cccnc4N)nc4ccc(-n5cccn5)nc43)ccc21)c1ccccc1 [Compound 132, (S)-3-(5-(2-(2-aminopyridin-3-yl)-5-(1H-pyrazol-1-yl)-3H-imidazo[4,5-b]pyridin-3-yl)-2,3-dihydro-1H-inden-1-yl)-1-methyl-1-phenylurea] | –
5 | – | – | 23.9 | 753 | Cc1ncccc1-c1cn([C@H]2CCc3cc(-n4c(-c5cccnc5N)nc5ccc(-n6cccn6)nc54)ccc32)nn1 [Compound 254] | –
6 | – | – | 9.5 | 113 | Nc1ncccc1-c1nc2ccc(-n3cccn3)nc2n1-c1ccc2c(c1)CC[C@@H]2n1cc(-c2ccncc2)nn1 [Compound 198] | –
7 | – | – | 16.7 | 107 | Cc1ncccc1C(=O)N[C@@H]1c2ccc(-n3c(-c4cccnc4N)nc4ccc(-n5cccn5)nc43)cc2CC1F (stereo partly shown) [Compound 148] | –
8 | 6.24 | 130 | – | – | Nc1ncccc1-c1nc2ccc(-n3ccc(N4CCOCC4)n3)nc2n1-c1ccc2c(c1)CC(F)[C@@H]2NC1CCN(C(=O)C2CC2)CC1 (stereo partly shown) [Compound 544] | –
9 | 21.2 | 422 | – | – | Nc1ncccc1-c1nc2ccc(-n3cccn3)nc2n1-c1ccc2c(c1)CC[C@@H]2NC1Cc2cccnc2C1 (stereo partly shown) [Compound 530] | –
10 | – | – | 9.54 | 86.4 | Nc1ncccc1-c1nc2ccc(-n3cccn3)nc2n1-c1ccc2c(c1)CC[C@@H]2NC(=O)c1cnc2[nH]ncc2c1 [Compound 192] | –
11 | 20.8 | 730 | – | – | COc1cccc(-c2ccc3nc(-c4cccnc4N)n(-c4ccc5c(c4)CC(F)[C@@H]5NC4CCN(C(=O)C5CC5)CC4)c3n2)n1 (stereo partly shown) [Compound 545] | –
12 | 14.7 | 250 | – | – | Cn1nc(F)cc1C(=O)N[C@H]1CCc2cc(-n3c(-c4cccnc4N)nc4ccc(-n5cccn5)nc43)ccc21 [Compound 396] | –
13 | – | – | 10.6 | 34.6 | COc1cc(-n2cccn2)nc2c1nc(-c1cccnc1N)n2-c1ccc2c(c1)CC[C@@H]2NC(=O)c1ccc(C(F)F)nc1 [Compound 122, (S)—N-(5-(2-(2-aminopyridin-3-yl)-7-methoxy-5-(1H-pyrazol-1-yl)-3H-imidazo[4,5-b]pyridin-3-yl)-2,3-dihydro-1H-inden-1-yl)-6-(difluoromethyl)nicotinamide] | –
14 | – | – | 10.6 | 83.1 | Nc1ncccc1-c1nc2ccc(-n3cccn3)nc2n1-c1ccc2c(c1)CC[C@@H]2n1cc(-c2cccnc2)nn1 [Compound 199] | –
15 | – | – | 113 | 1960 | Nc1ncccc1-c1nc2ccc(-n3cccn3)nc2n1-c1ccc2c(c1)CC[C@@H]2NCc1ccc(C(F)F)nc1 [Compound 84] | –
16 | – | – | 459 | > 10000 | Nc1ncccc1-c1nc2ccc(-n3cccn3)nc2n1-c1ccc2c(c1)CC[C@@H]2NC1CCS(=O)(=O)CC1 [Compound 89] | –
17 | 195 | 3020 | – | – | Cc1ccc(C(=O)N[C@H]2CCc3cc(-n4c(-c5cccnc5N)nc5ccc(-c6ncn(C)n6)nc54)ccc32)cn1 [Compound 455, (S)—N-(5-(2-(2-aminopyridin-3-yl)-5-(1-methyl-1H-1,2,4-triazol-3-yl)-3H-imidazo[4,5-b]pyridin-3-yl)-2,3-dihydro-1H-inden-1-yl)-6-methylnicotinamide] | –
18 | 358 | 3560 | – | – | Nc1ncccc1-c1nc2ccc(-n3cccn3)nc2n1-c1ccc2c(c1)CC[C@@H]2NC1CC2(CCCN(c3ccccn3)C2)C1 (stereo partly shown) [Compound 467] | –
19 | – | – | 19.6 | 131 | Cc1ncccc1C(=O)N[C@@H]1c2ccc(-n3c(-c4cccnc4N)nc4ccc(-n5cccn5)nc43)cc2CC1F (stereo partly shown) [Compound 147] | –
20 | 28.4 | 3850 | – | – | COc1ccn(-c2ccc3nc(-c4cccnc4N)n(-c4ccc5c(c4)CC[C@@H]5NC4CN(C(=O)C5CC5)C4)c3n2)n1 [Compound 484] | –
21 | 30.9 | 7440 | – | – | Nc1ncccc1-c1nc2ccc(-n3ccc(OC(F)F)n3)nc2n1-c1ccc2c(c1)CC[C@@H]2NC1CCN(C(=O)C2CC2)CC1 [Compound 483] | –
22 | 177 | > 10000 | – | – | Nc1ncccc1-c1nc2ccc(-n3nccn3)nc2n1-c1ccc2c(c1)CC(F)[C@@H]2NC1CCN(C(=O)C2CC2)CC1 (stereo partly shown) [Compound 532] | –

Row | IC50 (AKT1 WT; [1]) [nM] | IC50 (AKT2; [2]) [nM] | IC50 (AKT1 WT; [3]) [nM] | IC50 (AKT2; [4]) [nM] | Structure (SMILES) | other results
23 | 74.3 | 3200 | – | – | Nc1ncccc1-c1nc2ccc(-n3nccn3)nc2n1-c1ccc2c(c1)CC[C@@H]2NC(=O)c1ccc(CO)nc1 [Compound 490] | –
24 | – | – | 28.4 | 260 | Cc1ncsc1C(=O)N[C@H]1CCc2cc(-n3c(-c4cccnc4N)nc4ccc(-n5cccn5)nc43)ccc21 [Compound 99] | –
25 | 39 | 1040 | – | – | Nc1ncccc1-c1nc2ccc(-n3cccn3)nc2n1-c1ccc2c(c1)CC[C@@H]2NC1CCN(c2cccnc2)C1 (stereo partly shown) [Compound 471] | –
26 | 47.8 | 1760 | – | – | Nc1ncccc1-c1nc2ccc(-n3cccn3)nc2n1-c1ccc2c(c1)CC[C@@H]2NC1CC2(C1)CN(c1ccccn1)C2 [Compound 448] | –
27 | 58.9 | 1730 | – | – | Cn1nc(C(=O)N[C@H]2CCc3cc(-n4c(-c5cccnc5N)nc5ccc(-n6cccn6)nc54)ccc32)cc1F [Compound 428] | –
28 | 87.9 | 904 | – | – | COc1cncc(-c2ccc3nc(-c4cccnc4N)n(-c4ccc5c(c4)CC[C@@H]5NC4CCN(C(=O)C5CC5)CC4)c3n2)n1 [Compound 577] | –
29 | 209 | > 10000 | – | – | Nc1ncccc1-c1nc2ccc(-n3cccn3)nc2n1-c1ccc2c(c1)CC[C@@H]2NC1CCN(C(=O)[C@H]2CC2(F)F)CC1 [Compound 476] | –
30 | – | – | 8.16 | 21.4 | COc1cc(F)cc(C(=O)N[C@H]2CCc3cc(-n4c(-c5cccnc5N)nc5ccc(-n6cccn6)nc54)ccc32)c1 [Compound 334] | –
31 | 74.9 | 1690 | – | – | Cn1c(C(=O)N[C@H]2CCc3cc(-n4c(-c5cccnc5N)nc5ccc(-n6nccn6)nc54)ccc32)cnc1C(F)F [Compound 578] | –
32 | 25.3 | 795 | – | – | Cc1nnsc1C(=O)N[C@H]1CCc2cc(-n3c(-c4cccnc4N)nc4ccc(-n5cccn5)nc43)ccc21 [Compound 438] | –
33 | 31.9 | 1330 | – | – | Nc1ncccc1-c1nc2ccc(-n3cccn3)nc2n1-c1ccc2c(c1)CC[C@@H]2NC1CCN(C(=O)C2CC2)CC1F (stereo partly shown) [Compound 446] | –
34 | – | – | 37.7 | 316 | Nc1ncccc1-c1nc2ccc(-n3cccn3)nc2n1-c1ccc2c(c1)CC[C@@H]2NC(=O)c1ccnc(C#Cc2ccccc2)c1 [Compound 209] | –
35 | – | – | 119 | 6640 | CC(C)(O)c1cn([C@H]2CCc3cc(-n4c(-c5cccnc5N)nc5ccc(-n6cccn6)nc54)ccc32)nn1 [Compound 219] | –
36 | – | – | 13.8 | 60.6 | Cc1ncccc1C(=O)N[C@H]1CCc2cc(-n3c(-c4cccnc4N)nc4c(C(F)F)cc(-n5cccn5)nc43)ccc21 [Compound 213] | –
37 | 10.5 | 246 | – | – | CN1CC(Oc2ccn(-c3ccc4nc(-c5cccnc5N)n(-c5ccc6c(c5)CC[C@@H]6NC5CCN(C(=O)C6CC6)CC5)c4n3)n2)C1 [Compound 566] | –
38 | 93.4 | 1130 | – | – | Nc1ncccc1-c1nc2ccc(-n3cccn3)nc2n1-c1ccc2c(c1)CC[C@@H]2N[C@@H]1CCN(c2ccccc2)C1 [Compound 469] | –
39 | – | – | 9.84 | 114 | N#Cc1cc(-n2cccn2)nc2c1nc(-c1cccnc1N)n2-c1ccc2c(c1)CC[C@@H]2NC(=O)c1ccc(C(F)F)nc1 [Compound 123, (S)—N-(5-(2-(2-aminopyridin-3-yl)-7-cyano-5-(1H-pyrazol-1-yl)-3H-imidazo[4,5-b]pyridin-3-yl)-2,3-dihydro-1H-inden-1-yl)-6-(difluoromethyl)nicotinamide] | –
40 | 26.6 | 782 | – | – | Nc1ncccc1-c1nc2ccc(C#CC3CC3)nc2n1-c1ccc2c(c1)CC[C@@H]2NC(=O)c1ccc(F)c(F)c1 [Compound 459] | –
41 | 39.2 | 1220 | – | – | Cn1ccc(N2CCC(N[C@@H]3c4ccc(-n5c(-c6cccnc6N)nc6ccc(-n7cccn7)nc65)cc4CC3F)CC2)n1 (stereo partly shown) [Compound 519] | –
42 | – | – | – | – | Nc1ncccc1-c1nc2ccc(-n3cccn3)nc2n1-c1ccc2c(c1)CC[C@@H]2n1cc(-c2ccccc2)nn1 [Compound 155, (S)-3-(3-(1-(4-phenyl-1H-1,2,3-triazol-1-yl)-2,3-dihydro-1H-inden-5-yl)-5-(1H-pyrazol-1-yl)-3H-imidazo[4,5-b]pyridin-2-yl)pyridin-2-amine] | IC50 (AKT1 WT; AKT1 WT IC50 (nM), NanoBRET live cell target engagement, HEK293 cells): 16.5 nM; IC50 (AKT2; AKT2 IC50 (nM), NanoBRET live cell target engagement, HEK293 cells): 197 nM
43 | 25.2 | 962 | – | – | CN(C)C(=O)c1ccn(-c2ccc3nc(-c4cccnc4N)n(-c4ccc5c(c4)CC[C@@H]5NC4CCN(C(=O)C5CC5)CC4)c3n2)n1 [Compound 591] | –

Row | Structure (SMILES) | IC50 (AKT1 WT; [1]) [nM] | IC50 (AKT2; [2]) [nM] | IC50 (AKT1 WT; [3]) [nM] | IC50 (AKT2; [4]) [nM] | other results
44 | Nc1ncccc1-c1nc2ccc(-n3ccc(N4CC5CC(C4)O5)n3)nc2n1-c1ccc2c(c1)CC(F)[C@@H]2NC1CCN(C(=O)C2CC2)CC1 (stereo partly shown) [Compound 552] | 9.18 | 166 | – | – | –
